{"source": "patent US12545637B2", "about": "“Extrahepatic targeted cationic lipid compound with high efficiency and low toxicity and its composition” (BEIJING YOUCARE KECHUANG PHARMACEUTICAL TECHNOLOGY CO., LTD., priority 2023, dated 2026)", "key": {"[1]": {"assay": "Detection of encapsulation efficiency, drug loading concentration and total RNA concentration (RiboGreen)", "type": "physicochemical", "text": "Encapsulation efficiency is a key quality attribute of liposomes, which refers to the percentage of drug content encapsulated in the lipid bimolecular layer accounting for the total drug dose and can reflect the degree of drug encapsulation in liposomes. The Chinese Pharmacopoeia stipulates that the encapsulation efficiency should generally not be less than 80%.\nThe drug loading amount is the ratio of the amount of drug in the liposome to the total amount of drug and carrier in the liposome. The drug loading amount directly affects the clinical application dose of the drug. […] The drug loading concentration is proportional to the drug loading amount, and the relative proportion of the drug loading concentrations can represent the relative proportion of the drug loading amounts. The relative ratio of the total RNA concentrations may represent the relative ratio of the amounts of mRNA carried by the LNP formulations.\n1×TE buffer, 0.1% Triton X-100 buffer, RiboGreen reagent (1: 200) and mRNA standard stock solution were prepared.\nAn appropriate amount of the sample was added to an appropriate amount of 1×TE buffer, and the mixture was diluted to obtain a solution containing approximately […] sample per 1 mL. Then the sample was added to a 96-well plate, and 50 μL of the diluted test sample or the mRNA standard stock solution was added to each well, then 1×TE buffer and 0.1% Triton X-100 buffer were added. The sample was incubated at 37° C. for 10 minutes, and 100 μL RiboGreen reagent (1:200) was added to each well of the test sample in the 96-well plate. The sample was centrifugated, and the data were read using a microplate reader, and processed."}, "293T cells [2]": {"system": "293T cells", "assay": "Fluorescent detection of Fluc-mRNA (cell transfection efficiency of LNP formulations)", "type": "cell-based", "procedure": "(§1) Seeding plate: The cells in the culture dish were digested and counted. Cells were spread in a 96-well plate at 10,000 cells per well and in a 12-well plate at 150,000 cells per well. Cells were cultured overnight until the cells adhered to the wall.\nThe corresponding reagents were added according to the instructions of the Gaussia Luciferase Assay Kit, and the fluorescence expression intensity of each well was detected by an IVIS fluorescence detection system."}, "293T cells [3]": {"system": "293T cells", "assay": "Cell transfection test of LNP formulation of eGFP-mRNA (optimization of preparation conditions)", "type": "cell-based", "procedure": "The cationic lipid compound YK-407 synthesized in Example 1 was dissolved in ethanol with DSPC (AVT (Shanghai) Pharmaceutical Technology Co., Ltd.), cholesterol (AVT (Shanghai) Pharmaceutical Technology Co., Ltd.) and DMG-PEG2000 according to a molar ratio of 49:10:39.5:1.5, respectively, to prepare an ethanol lipid solution. The ethanol lipid solution was quickly added to citrate buffer (pH=4-5) by ethanol injection method, and vortexed for 30s for later use. eGFP-mRNA was diluted in citrate buffer (pH=4-5) to give an aqueous mRNA solution. A certain volume of liposome solution and mRNA aqueous solution were used to prepare liposomes at weight ratios of total lipids to mRNA of 5:1, 10:1, 15:1, 20:1, 30:1 and 35:1, respectively. The mixtures were sonicated at 25° C. for 15 min (with an ultrasonic frequency of 40 kHz and an ultrasonic power of 800 W). The resulted liposomes were diluted to 10 times volume with PBS, and then ultrafiltered with a 300KDa ultrafiltration tube to remove ethanol. Then the volume was fixed to a certain volume with PBS to give an LNP formulation encapsulating eGFP-mRNA using cationic lipid YK-407/DSPC/cholesterol/DMG-PEG2000 (49:10:39.5:1.5 in molar percentage).\nThe LNP formulation encapsulating eGFP-mRNA was prepared according to the method in 1, wherein the molar ratios of cationic lipid YK-407 to neutral lipid DSPC were 1:1, 3:1, 3.5:1, 4:1, 4.5:1, 4.9:1, 10:1, 15:1 and 20:1.\nThe LNP formulation encapsulating eGFP-mRNA was prepared according to the method in 1, wherein the cationic lipid in the carrier was YK-407, and the molar ratios of the polymer-conjugated lipid DMG-PEG2000 to the carrier were 0.5%, 1.5%, 3.5%, 5%, 10% and 15%, respectively.\nThe LNP formulation encapsulating eGFP-mRNA was prepared according to the method in 1, wherein the molar ratios of cationic lipid YK-407, neutral lipid DSPC, structured lipid cholesterol and polymer-conjugated lipid DMG-PEG2000 were 75:5:15:5, 49:10:39.5:1.5, 45:10:43.5:1.5, 45:25:20:10, 40:10:48.5:1.5, 35:10:53.5:1.5 and 25:5:65:5, respectively.\nCell recovery and passage: 293T cells were recovered, cultured in a culture dish, and passaged to the required number of cells.\nas §1\nCell transfection test: The LNP formulation containing 1.5 μg of eGFP-mRNA prepared in Example 2 (the cationic lipid in the carrier was YK-407) and the Lipofectamin 3000 formulation of eGFP-mRNA were added respectively to the cell culture medium of the 12-well plate, and further incubated for 24 hours. The transfection efficiency of different samples was then investigated according to the fluorescence intensity by observing with a fluorescence microscope."}, "293T cells [4]": {"system": "293T cells", "assay": "Fluorescent detection of Fluc-mRNA (cell transfection efficiency of LNP formulations)", "type": "cell-based", "remark": "listed apart in the source"}, "[5]": {"settings": "LNP formulation prepared from the cationic lipid"}}}
{"smiles": "CCCCCCCCC(CCCCCCCC)OC(=O)CCCCCCCN(CCO)CCN(CCO)CCCCCCCC(=O)OC(CCCCCCCC)CCCCCCCC", "note": "[YK-403, di(heptadecan-9-yl) 8, 8′-(ethane-1,2-diyl-bis((2-hydroxyethyl)azanediyl))dioctanoate]", "values": [{"measurement": "Drug loading concentration", "setting": "[1]; [5]", "result": 34.21, "unit": "µg/mL"}, {"measurement": "Encapsulation efficiency", "setting": "[1]; [5]", "result": 87.9, "unit": "%"}, {"measurement": "Total RNA concentration", "setting": "[1]; [5]", "result": 40.53, "unit": "µg/mL"}, {"measurement": "encapsulation efficiency higher than ALC-0315", "setting": "[1]; difference vs ALC-0315", "result": 24.6, "unit": "%"}, {"measurement": "encapsulation efficiency higher than HIMA", "setting": "[1]; difference vs HIMA (HHMA)", "result": 27.7, "unit": "%"}, {"measurement": "encapsulation efficiency higher than SM-102", "setting": "[1]; difference vs SM-102", "result": 25.0, "unit": "%"}, {"measurement": "encapsulation efficiency higher than YK-009", "setting": "[1]; difference vs YK-009", "result": 24.4, "unit": "%"}, {"measurement": "encapsulation efficiency higher than compound 21", "setting": "[1]; difference vs compound 21", "result": 29.9, "unit": "%"}, {"measurement": "encapsulation efficiency higher than compound 23", "setting": "[1]; difference vs compound 23", "result": 31.7, "unit": "%"}, {"measurement": "drug loading concentration, times that of ALC-0315", "setting": "[1]; ratio vs ALC-0315", "result": 1.27}, {"measurement": "total RNA concentration, times that of ALC-0315", "setting": "[1]; ratio vs ALC-0315", "result": 1.07}, {"measurement": "drug loading concentration, times that of HIMA", "setting": "[1]; ratio vs HIMA (HHMA)", "result": 1.05}, {"measurement": "total RNA concentration, times that of HIMA", "setting": "[1]; ratio vs HIMA (HHMA)", "result": 1.11}, {"measurement": "drug loading concentration, times that of SM-102", "setting": "[1]; ratio vs SM-102", "result": 1.29}, {"measurement": "total RNA concentration, times that of SM-102", "setting": "[1]; ratio vs SM-102", "result": 1.12}, {"measurement": "drug loading concentration, times that of YK-009", "setting": "[1]; ratio vs YK-009", "result": 1.24}, {"measurement": "total RNA concentration, times that of YK-009", "setting": "[1]; ratio vs YK-009", "result": 1.05}, {"measurement": "drug loading concentration, times that of compound 21", "setting": "[1]; ratio vs compound 21", "result": 1.56}, {"measurement": "total RNA concentration, times that of compound 21", "setting": "[1]; ratio vs compound 21", "result": 1.40}, {"measurement": "drug loading concentration, times that of compound 23", "setting": "[1]; ratio vs compound 23", "result": 1.71}, {"measurement": "total RNA concentration, times that of compound 23", "setting": "[1]; ratio vs compound 23", "result": 1.31}, {"measurement": "Relative light unit (RLU)", "setting": "293T cells [2]; LNP with 0.3 μg Fluc-mRNA, 96-well plate, 24 hours", "result": 5249304, "unit": "RLU"}, {"measurement": "cell transfection efficiency, times that of YK-415", "setting": "293T cells [2]; ratio vs YK-415", "result": 17.61}, {"measurement": "cell transfection efficiency, times that of YK-417", "setting": "293T cells [2]; ratio vs YK-417", "result": 44.76}, {"measurement": "cell transfection efficiency, times that of YK-418", "setting": "293T cells [2]; ratio vs YK-418", "result": 47.18}, {"measurement": "cell transfection efficiency, times that of YK-424", "setting": "293T cells [2]; ratio vs YK-424", "result": 1.82}, {"measurement": "RLU value, times that of compound 21", "setting": "293T cells [2]; ratio vs compound 21", "result": 3.47}, {"measurement": "RLU value, times that of compound 23", "setting": "293T cells [2]; ratio vs compound 23", "result": 3.74}, {"measurement": "transfection efficiency at different molar ratios of polymer-conjugated lipid DMG-PEG2000 to carrier", "setting": "293T cells [3]; 0.5% to 15%", "result": "same results"}, {"measurement": "transfection effect at different molar ratios of cationic lipid, neutral lipid, structured lipid and polymer-conjugated lipid", "setting": "293T cells [3]; 75:5:15:5 to 25:5:65:5", "result": "same results"}, {"measurement": "RLU value, times that of ALC-0315", "setting": "293T cells [4]; ratio vs ALC-0315", "result": 2.40}, {"measurement": "RLU value, times that of HHMA", "setting": "293T cells [4]; ratio vs HHMA", "result": 2.52}, {"measurement": "RLU value, times that of Lipofectamine 3000", "setting": "293T cells [4]; ratio vs Lipofectamine 3000", "result": 4.37}, {"measurement": "RLU value, times that of YK-009", "setting": "293T cells [4]; ratio vs YK-009", "result": 1.02}, {"measurement": "RLU value, times that of YK-405", "setting": "293T cells [4]; ratio vs YK-405", "result": 1.64}, {"measurement": "RLU value, times that of YK-406", "setting": "293T cells [4]; ratio vs YK-406", "result": 67.08}, {"measurement": "RLU value, times that of YK-408", "setting": "293T cells [4]; ratio vs YK-408", "result": 3.56}, {"measurement": "RLU value, times that of YK-409", "setting": "293T cells [4]; ratio vs YK-409", "result": 7.84}, {"measurement": "RLU value, times that of YK-410", "setting": "293T cells [4]; ratio vs YK-410", "result": 12.87}, {"measurement": "cell transfection efficiency, times that of YK-412", "setting": "293T cells [4]; ratio vs YK-412", "result": 1.56}, {"measurement": "cell transfection efficiency, times that of YK-413", "setting": "293T cells [4]; ratio vs YK-413", "result": 3.81}, {"measurement": "cell transfection efficiency, times that of YK-414", "setting": "293T cells [4]; ratio vs YK-414", "result": 11.82}, {"measurement": "cell transfection efficiency, times that of YK-416", "setting": "293T cells [4]; ratio vs YK-416", "result": 1.32}, {"measurement": "cell transfection efficiency, times that of YK-419", "setting": "293T cells [4]; ratio vs YK-419", "result": 1.66}, {"measurement": "cell transfection efficiency, times that of YK-420", "setting": "293T cells [4]; ratio vs YK-420", "result": 1.31}, {"measurement": "cell transfection efficiency, times that of YK-421", "setting": "293T cells [4]; ratio vs YK-421", "result": 11.25}]}
